Reference: US9801872B2, “Pyridinyl and fused pyridinyl triazolone derivatives” (Takeda Pharmaceutical Company Limited, priority 2013, dated 2017)

Biological target: human BTK (Homo sapiens (Human), UniProt Q06187)
Experiment: BTK inhibition: BTK-mediated phosphorylation of FAM-labeled substrate 5-FAM-[…]-NH2 (Caliper LC-3000)
Type: biochemical
Conditions: for BTK Inhibition (pIC50): residues 382 to 659 of human BTK, 60 minutes at room temperature, pIC50 = -log(IC50), IC50 molar
Excerpt: The activity of compounds as BTK inhibitors may be determined by a variety of methods, including in vitro and in vivo methods.
This construct engineers an in-frame translational fusion with the Glutathione-S-Transferase (GST) protein for use in affinity purification. The fusion protein derived from this construct contains a protease recognition sequence to liberate the BTK from the GST affinity tag. High-titer baculoviral stocks, generated using the Bac-to-Bac® system (Invitrogen), are used to express the recombinant protein in Spodoptera frugiperda Sf9 cells in 10 L Wave bags. Recombinant proteins are isolated from cellular extracts by passage over Glutathione Sepharose 4B (GE Healthcare) and the BTK moiety is released from the GST affinity tag by treatment with PreScission protease. The BTK recombinant protein is further purified by size exclusion chromatography (HiLoad 16/60 Superdex 200, GE Healthcare) in a buffer containing 20 mM Hepes (pH 7.4), 50 mM NaCl, 10 mM MgCl2, 0.25 mM TCEP and 0.1 mM EDTA. The purity of the fractions is assessed by SDS PAGE and the peak protein fractions are pooled and concentrated using Amicon Ultra-15 Centrifugal Filter Devices (Millipore).
The inhibitory properties of compounds relative to BTK is determined using a black 384-well-plate format in a buffer which contains 50 mM Hepes, 10 mM NaCl, 10 mM MgCl2, 0.2 mM EDTA, 0.01% Brij35®, 1 mM DTT, and 0.1 mg/mL BSA at pH 7.3. The test compound is prepared in DMSO using 2-fold serial dilutions for 11 data points, which are added to the buffer so that each dilution contains 3% DMSO. […] The reaction mixtures are incubated at room temperature for 60 minutes and then quenched by adding 25 μL of 50 mM EDTA. To quantify the fluorescent-labeled substrate and product following reaction, the test plate is loaded on a Caliper LC-3000, which measures percent of conversion by microfluidic-based separation.
The compounds were tested in accordance with the assay described on page 42 of the specification.

Chain of human BTK (Q06187 382-659): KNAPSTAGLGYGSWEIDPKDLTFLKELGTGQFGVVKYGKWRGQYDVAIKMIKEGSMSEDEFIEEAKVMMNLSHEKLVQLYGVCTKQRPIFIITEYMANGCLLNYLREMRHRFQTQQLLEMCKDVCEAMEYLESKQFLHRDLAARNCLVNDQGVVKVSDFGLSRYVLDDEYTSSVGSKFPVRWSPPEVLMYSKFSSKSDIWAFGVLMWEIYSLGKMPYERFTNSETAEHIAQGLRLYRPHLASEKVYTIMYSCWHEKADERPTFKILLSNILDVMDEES

Row | SMILES | BTK Inhibition (pIC50) | IC50 (read-out: BTK Inhibition (pIC50) (converted)) [nM]
1 | C=CC(=O)N1CC[C@H](N(C)c2nc(-c3n[nH]c(=O)[nH]3)cc3ccccc23)C1 [Example 11, (S)-3-(1-((1-acryloylpyrrolidin-3-yl)(methyl)amino)isoquinolin-3-yl)-1H-1,2,4-triazol-5(4H)-one] | 8.5 | –
2 | C=CC(=O)N1C[C@@H](C)[C@H](Oc2nc(-c3n[nH]c(=O)[nH]3)cc3ccccc23)C1 [Example 21, 3-(1-(((3S,4R)-1-acryloyl-4-methylpyrrolidin-3-yl)oxy)isoquinolin-3-yl)-1H-1,2,4-triazol-5(4H)-one] | 6.9 | –
3 | C=CC(=O)N1CCC[C@H](Oc2nc(-c3n[nH]c(=O)[nH]3)cc3ccccc23)C1 [Example 35, (S)-5-(1-((1-acryloylpiperidin-3-yl)oxy)isoquinolin-3-yl)-2,4-dihydro-3H-1,2,4-triazol-3-one] | 7.5 | –
4 | C=CC(=O)N1CCC[C@H]1CNc1nc(-c2n[nH]c(=O)[nH]2)cc2ccccc12 [Example 6, (S)-3-(1-(((1-acryloylpyrrolidin-2-yl)methyl)amino)isoquinolin-3-yl)-1H-1,2,4-triazol-5(4H)-one] | 8.0 | –
5 | C=C(C)C(=O)N1CC[C@@H](Oc2nc(-c3n[nH]c(=O)[nH]3)cc3ccccc23)C1 [Example 1, (R)-3-(1-((1-methacryloylpyrrolidin-3-yl)oxy)isoquinolin-3-yl)-1H-1,2,4-triazol-5(4H)-one] | 6.7 | –
6 | C=CC(=O)NC1CCN(c2nc(-c3n[nH]c(=O)[nH]3)cc3ccccc23)C1 (stereo not shown) [Example 4, N-(1-(3-(5-oxo-4,5-dihydro-1H-1,2,4-triazol-3-yl)isoquinolin-1-yl)pyrrolidin-3-yl)acrylamide] | >8.1 | –
7 | C=CC(=O)N1CC[C@H](Nc2nc(-c3n[nH]c(=O)[nH]3)cc3cccc(OC)c23)C1 [Example 29, (S)-3-(1-((1-acryloylpyrrolidin-3-yl)amino)-8-methoxyisoquinolin-3-yl)-1H-1,2,4-triazol-5(4H)-one] | >8.6 | –
8 | C=CC(=O)N1CC[C@H](OCc2nc(-c3n[nH]c(=O)[nH]3)cc3ccccc23)C1 [Example 13, (S)-3-(1-(((1-acryloylpyrrolidin-3-yl)oxy)methyl)isoquinolin-3-yl)-1H-1,2,4-triazol-5(4H)-one] | >8.0 | –
9 | C=C(C)C(=O)N1CC[C@H](Oc2nc(-c3n[nH]c(=O)[nH]3)cc3ccccc23)C1 [Example 12, (S)-3-(1-((1-methacryloylpyrrolidin-3-yl)oxy)isoquinolin-3-yl)-1H-1,2,4-triazol-5(4H)-one] | 6.9 | –
10 | C=CC(=O)N1CC[C@H](Oc2nc(-c3n[nH]c(=O)[nH]3)ccc2C)C1 [Example 32, (S)-3-(6-((1-acryloylpyrrolidin-3-yl)oxy)-5-methylpyridin-2-yl)-1H-1,2,4-triazol-5(4H)-one] | 8.3 | –
11 | C=CC(=O)N1C[C@H](Oc2nc(-c3n[nH]c(=O)[nH]3)cc3ccccc23)[C@@H](C)C1 (racemic) [Example 19, 3-(1-(((3R,4S)-1-acryloyl-4-methylpyrrolidin-3-yl)oxy)isoquinolin-3-yl)-1H-1,2,4-triazol-5(4H)-one and 3-(1-(((3S,4R)-1-acryloyl-4-methylpyrrolidin-3-yl)oxy)isoquinolin-3-yl)-1H-1,2,4-triazol-5(4H)-one (mixture of enantiomers)] | – | < 6.31
12 | C=CC(=O)N1CC[C@H](Oc2cccc(-c3n[nH]c(=O)[nH]3)n2)C1 [Example 31, (S)-3-(6-((1-acryloylpyrrolidin-3-yl)oxy)pyridin-2-yl)-1H-1,2,4-triazol-5(4H)-one] | 7.2 | –
13 | C=CC(=O)N1C[C@H](Oc2nc(-c3n[nH]c(=O)[nH]3)cc3ccccc23)[C@@H](C)C1 [Example 20, 3-(1-(((3R,4S)-1-acryloyl-4-methylpyrrolidin-3-yl)oxy)isoquinolin-3-yl)-1H-1,2,4-triazol-5(4H)-one] | >8.6 | –
14 | C/C=C/C(=O)N1CC[C@@H](Oc2nc(-c3n[nH]c(=O)[nH]3)cc3ccccc23)C1 [Example 3, (R,E)-3-(1-((1-(but-2-enoyl)pyrrolidin-3-yl)oxy)isoquinolin-3-yl)-1H-1,2,4-triazol-5(4H)-one] | 6.5 | –
15 | C=CC(=O)N1CCC[C@H]1COc1nc(-c2n[nH]c(=O)[nH]2)cc2ccccc12 [Example 7, (S)-3-(1-((1-acryloylpyrrolidin-2-yl)methoxy)isoquinolin-3-yl)-1H-1,2,4-triazol-5(4H)-one] | 8.0 | –
16 | C=CC(=O)N1CC[C@H](Oc2nc(-c3n[nH]c(=O)[nH]3)cc3ccccc23)C1 [Example 5, (S)-3-(1-((1-acryloylpyrrolidin-3-yl)oxy)isoquinolin-3-yl)-1H-1,2,4-triazol-5(4H)-one] | >8.7 | –
17 | C=CC(=O)N1CCC[C@@H]1COc1nc(-c2n[nH]c(=O)[nH]2)cc2ccccc12 [Example 9, (R)-3-(1-((1-acryloylpyrrolidin-2-yl)methoxy)isoquinolin-3-yl)-1H-1,2,4-triazol-5(4H)-one] | >7.9 | –

Next, values leading:

Row | BTK Inhibition (pIC50) | IC50 (read-out: BTK Inhibition (pIC50) (converted)) [nM] | SMILES
18 | >8.6 | – | O=C(CCl)N1CC[C@H](Nc2nc(-c3n[nH]c(=O)[nH]3)cc3ccccc23)C1 [Example 34, (S)-5-(1-((1-(2-chloroacetyl)pyrrolidin-3-yl)amino)isoquinolin-3-yl)-2,4-dihydro-3H-1,2,4-triazol-3-one]
19 | 7.6 | – | C/C=C/C(=O)N1CC[C@H](Nc2nc(-c3n[nH]c(=O)[nH]3)cc3ccccc23)C1 [Example 15, (S,E)-3-(1-((1-(but-2-enoyl)pyrrolidin-3-yl)amino)isoquinolin-3-yl)-1H-1,2,4-triazol-5(4H)-one]
20 | >8.6 | – | C=CC(=O)N1CC[C@H](Nc2nc(-c3n[nH]c(=O)[nH]3)cc3ccc(Cl)cc23)C1 [Example 26, (S)-3-(1-((1-acryloylpyrrolidin-3-yl)amino)-7-chloroisoquinolin-3-yl)-1H-1,2,4-triazol-5 (4H)-one]
21 | >8.9 | – | C=CC(=O)N1CC[C@H](Nc2nc(-c3n[nH]c(=O)[nH]3)cc3cccc(F)c23)C1 [Example 23, (S)-3-(1-((1-acryloylpyrrolidin-3-yl)amino)-8-fluoroisoquinolin-3-yl)-1H-1,2,4-triazol-5(4H)-one]
22 | >8.2 | – | O=C(CCl)N1CC[C@H](Oc2nc(-c3n[nH]c(=O)[nH]3)cc3ccccc23)C1 [Example 33, (S)-5-(1-((1-(2-chloroacetyl)pyrrolidin-3-yl)oxy)isoquinolin-3-yl)-2,4-dihydro-3H-1,2,4-triazol-3-one]
23 | >8.6 | – | C=CC(=O)N1CC[C@H](Nc2nc(-c3n[nH]c(=O)[nH]3)cc3ccc(F)cc23)C1 [Example 25, (S)-3-(1-((1-acryloylpyrrolidin-3-yl)amino)-7-fluoroisoquinolin-3-yl)-1H-1,2,4-triazol-5(4H)-one]
24 | >8.6 | – | C=CC(=O)N1CC[C@H](Nc2nc(-c3n[nH]c(=O)[nH]3)cc3ccccc23)C1 [Example 8, (S)-3-(1-((1-acryloylpyrrolidin-3-yl)amino)isoquinolin-3-yl)-1H-1,2,4-triazol-5(4H)-one]
25 | 7.1 | – | C=CC(=O)N1CC[C@@H](Oc2nc(-c3n[nH]c(=O)[nH]3)cc3ccccc23)C1 [Example 2, (R)-3-(1-((1-acryloylpyrrolidin-3-yl)oxy)isoquinolin-3-yl)-1H-1,2,4-triazol-5(4H)-one]
